Measured values: paper PMC4414066 (Journal of medicinal chemistry, 2015)

Tests used:
hGlyR-α1 = target: T1, hGlyR-α1 (Homo sapiens, UniProt P23415); format: cell-based; settings: for potentiation effect on the channel current (representative traces): 10 μM modulator, glycine EC5, Figure 5a; for potentiation up to the maximum tested concentration: up to 10 μM, glycine EC5
T1 sequence (P23415 29-457): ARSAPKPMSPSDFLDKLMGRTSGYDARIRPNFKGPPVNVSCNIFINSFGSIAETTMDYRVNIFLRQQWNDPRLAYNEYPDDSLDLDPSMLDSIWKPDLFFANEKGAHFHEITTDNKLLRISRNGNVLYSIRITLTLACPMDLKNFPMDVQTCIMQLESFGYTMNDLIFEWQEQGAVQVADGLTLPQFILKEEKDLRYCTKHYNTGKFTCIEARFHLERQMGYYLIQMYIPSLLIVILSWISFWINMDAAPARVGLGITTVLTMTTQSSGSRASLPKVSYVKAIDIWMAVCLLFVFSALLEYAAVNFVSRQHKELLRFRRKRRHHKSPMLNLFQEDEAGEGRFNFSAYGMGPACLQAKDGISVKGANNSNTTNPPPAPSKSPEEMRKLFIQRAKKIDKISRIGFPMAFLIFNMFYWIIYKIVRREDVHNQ

α7nAChR = settings: previous finding; cited from earlier work

| SMILES | potentiation effect on the channel current (representative traces) (hGlyR-α1) | potentiation up to the maximum tested concentration (hGlyR-α1) | effect on α7nAChR function (α7nAChR) |
| --- | --- | --- | --- |
| O=c1[nH]c2ccccc2n1C1CCN(CCCC(c2ccc(F)cc2)c2ccc(F)cc2)CC1 [Pimozide] | much greater potentiation effect on the channel current than THC |  |  |
| COc1cc(OC)c(NC(=O)Nc2cc(C)on2)cc1Cl [PNU-120596] |  | did not show potentiation |  |
| CCCCCc1cc(O)c2c(c1)OC(C)(C)[C@@H]1CCC(C)=C[C@@H]21 [THC, Δ^9-tetrahydrocannabinol] |  |  | little effect |
| Cc1nc2c([nH]1)-c1ccccc1N(C(=O)c1ccc(NC(=O)c3ccccc3-c3ccccc3)cc1)CC2 [Conivaptan] | no potentiation | did not show potentiation |  |
